From patent US10106523B2, “Amide compound” (ASTELLAS PHARMA INC., priority 2014, dated 2018) come the findings set out here.

Assay [1] relates to renin activity in rat plasma. As to the kind of experiment: Action on renin activity in rat plasma (PRA increase due to EP4 agonist ONO-AE1-437). The note with it: SD rats, 0.3 mg/kg po; ONO-AE1-437 0.01 mg/kg sc. Type of assay: in vivo. The procedure: Test Example 6: Evaluation Test of Action on Renin Activity in Rat Plasma
SD rats (male, 7-week old) under non-fasting conditions were used for the test. A test compound dissolved in a mixed solution of PEG 400:20% Tween 80:1 mol/L aqueous NaHCO3 solution=1:4:5 was orally administered (po) to the rat at a dose of 0.3 mg/kg (5 mL/kg). After 1 hour, an active metabolite (ONO-AE1-437) of an EP4 agonist ONO-4819 dissolved in physiological saline was subcutaneously administered to the back of the rat at a dose of 0.01 mg/kg (5 mL/kg). After 10 minutes, the rat was decapitated without anesthesia and about 2 mL of blood was collected in a tube containing 3 mg of EDTA.2Na. The blood sample was centrifuged (1000×g, 10 minutes, 4° C.) to separate the plasma. […] The Angiotensin I concentration in both samples was measured by an ELISA method, and a concentration obtained by subtracting a value of the blank reaction from the value of the sample incubated at 37° C. was taken as a renin activity in plasma (plasma renin activity (PRA)). By taking the PRA of the inhibitor rate of the group (n=5) not treated with ONO-AE1-437 as 100% and taking that of the group (n=4) treated with ONO-AE1-437 as 0%, the inhibitory rate of the test compound group (n=5) was calculated.

Assay [2] concerns the target rat EP4 receptor (Rattus norvegicus, UniProt P43114). As to the kind of experiment: Evaluation test of rat EP4 receptor affinity ([3H]PGE2 binding, membrane fraction of HEK-293 cells). The arrangement: expressed in transfected cells; host or cells: HEK-293 (ATCC CRL-1573), transient. The conditions noted are these: 0.3 nmol/L [3H]PGE2, rat EP4 cell membrane fraction, room temperature 1 hour; read-out: Ki value with respect to the rat EP4 receptor. The procedure:
Test Example 1: Evaluation Test of Rat EP4 Receptor Affinity
Construction of Rat EP4 Receptor Expressing Vector:
A rat EP4 receptor gene (GenBank accession No.: NM_032076.1) was transfected into an expression vector pcDNA3.1-V5-His-TOPO (Invitrogen Inc.).
Transient Expression of Rat EP4 Receptor:
The expression vector of a rat EP4 receptor was transfected into an HEK-293 cell (ATCC No.: CRL-1573). The transfection was carried out according to an appended instruction, using Lipofectoamine (registered trademark) 2000 reagent (Invitrogen Inc.). After the transfection, the cells were cultured in an α-MEM culture medium for 20 to 24 hours.
Preparation of Membrane Fraction:
The culture medium was removed by aspiration, 10 mL of cooled phosphate buffered saline (PBS) was added thereto per 15 cm dish, and the cells were scraped using a cell scraper (Sumitomo Bakelite). […]
[^3H]PGE2 and a cell membrane fraction were diluted with an assay buffer (50 mmol/L HEPES-NaOH, 10 mmol/L MgCl2, pH 7.5), and the test compound and unlabeled PGE2 (Cayman) were diluted with DMSO and the assay buffer. […] The radioactivity was measured using a TopCount (Perkin Elmer). […] The specific binding amount was determined by subtracting the non-specific binding amount from the total binding amount. The Ki value was calculated according to a standard method.

Sequence of rat EP4 receptor (P43114 whole entry): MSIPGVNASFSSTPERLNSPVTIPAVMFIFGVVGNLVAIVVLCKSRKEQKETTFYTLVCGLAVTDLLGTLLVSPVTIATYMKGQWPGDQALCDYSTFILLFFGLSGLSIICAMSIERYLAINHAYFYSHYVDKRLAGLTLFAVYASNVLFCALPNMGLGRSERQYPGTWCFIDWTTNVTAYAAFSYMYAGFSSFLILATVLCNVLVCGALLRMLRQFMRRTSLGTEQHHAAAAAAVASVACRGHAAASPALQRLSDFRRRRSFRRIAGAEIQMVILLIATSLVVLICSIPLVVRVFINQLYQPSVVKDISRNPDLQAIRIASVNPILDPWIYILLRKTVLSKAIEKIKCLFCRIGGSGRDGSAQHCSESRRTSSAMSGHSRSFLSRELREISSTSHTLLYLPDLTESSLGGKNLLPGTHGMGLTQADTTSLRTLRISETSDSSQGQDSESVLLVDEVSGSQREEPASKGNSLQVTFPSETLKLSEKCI

On to `Cc1nn(Cc2cc3ccccc3cn2)c(C(=O)N[C@@H](C)c2ccc(C(=O)O)cc2)c1Br` [Compound A, 4-[(1S)-1-({[4-bromo-1-(isoquinolin-3-ylmethyl)-3-methyl-1H-pyrazol-5-yl]carbonyl}amino)ethyl]benzoic acid], for which the “Inhibition of the increase in PRA (plasma renin activity) due to the EP4 agonist ONO-AE1-437” value in assay [1] was determined as 102%. In assay [2], the Ki (in general, the dissociation constant of the complex between target and ligand, obtained from inhibition or displacement) was determined as 0.874 nM.
